# Where two headings read alike, the source gives them in different places. Numbered stars: 1 amine (or outer) side, 2 acyl side, 3 side chain; on linkers, the order of the positions; unused ones are H or OH. Square brackets hold non-standard residues; d marks the D form. Side chains are listed from the residue outwards. Peptide text beside a SMILES is read from it. * marks the point of attachment. C20 diacid = O=C(O)CCCCCCCCCCCCCCCCCCC(=O)*; γGlu = O=C(O)[C@H](CCC(=O)[*:2])N[*:1]; αMeL = CC(C)C[C@](C)(N)C(=O)O; AEEA = NCCOCCOCC(=O)O; Aib = CC(C)(N)C(=O)O
# Tests used:
# [1] = target: T1, human GIP receptor (Homo sapiens, UniProt P48546); experiment: [125I]-GIP binding (SPA), human GIP receptor
# T1 construct: expressed in transfected cells; crude membranes
# T1 sequence (P48546 22-466): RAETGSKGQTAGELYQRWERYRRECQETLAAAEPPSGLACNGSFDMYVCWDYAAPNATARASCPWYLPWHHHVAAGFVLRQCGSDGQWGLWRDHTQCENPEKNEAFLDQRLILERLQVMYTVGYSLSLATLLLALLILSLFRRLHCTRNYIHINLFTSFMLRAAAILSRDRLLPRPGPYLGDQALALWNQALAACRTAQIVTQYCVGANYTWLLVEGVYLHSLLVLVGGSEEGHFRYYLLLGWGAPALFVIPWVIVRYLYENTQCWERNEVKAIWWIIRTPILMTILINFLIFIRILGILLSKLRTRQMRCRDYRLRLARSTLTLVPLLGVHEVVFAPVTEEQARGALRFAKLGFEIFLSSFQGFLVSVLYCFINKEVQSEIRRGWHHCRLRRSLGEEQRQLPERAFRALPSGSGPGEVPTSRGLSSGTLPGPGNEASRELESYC
# [2] = target: T2, human Gcg receptor (Homo sapiens, UniProt P47871); experiment: [125I]-Glucagon binding (SPA), human Gcg receptor
# T2 construct: expressed in transfected cells; crude membranes
# In short: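 Crude membranes from cells expressing the receptor, prepared by hypotonic lysis in 50 mM Tris HCl pH 7.5 with protease inhibitors, homogenization and differential centrifugation, were used in a WGA-bead SPA. Binding buffer: 25 mM HEPES pH 7.4, 2.5 mM CaCl2, 1 mM MgCl2, bacitracin, Tween-20.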
# [3] = target: T3, human GLP-1R (Homo sapiens, UniProt P43220); experiment: GLP-1R CHO cell β-arrestin recruitment assay; assay type: cell-based; set-up: host or cells: CHO-K1 PathHunter cells, assay-ready frozen; conditions: for hGLP1R B-Arrestin2 % Top: normalized to GLP-1 maximum control
# In short: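 Peptide-induced β-arrestin-2 recruitment measured by enzyme-fragment complementation luminescence after 90 min at 37 °C plus 60 min detection at RT.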
# [4] = target: human GLP-1 receptor (GLP-1R) (Homo sapiens, UniProt P43220); experiment: cAMP pharmacological functional assay in presence of casein, hGLP-1R; assay type: cell-based
# [5] = target: T3, human GLP-1R; experiment: [125I]-GLP-1 binding (SPA), human GLP-1 receptor; set-up: expressed in transfected cells; crude membranes
# In short: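 Crude-membrane binding assay; one membrane prep included 1 mM MgCl2 and 25 units/ml DNAse I during lysis. Assay buffer at pH 7.4 contains 0.1% (w/v) bacitracin and 0.003% (w/v) TWEEN-20. Ki is reported as geometric mean.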
# [6] = target: T3, human GLP-1R; experiment: GLP-1R HEK293 cell membrane [35S]GTPγS binding assay; assay type: biochemical; set-up: expressed in transfected cells; host or cells: HEK293 cells expressing human GLP-1R; membranes
# In short: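 Agonist-driven Gαs activation read as [35S]GTPγS ([…]) binding to receptor-expressing HEK293 membranes, 30 min at room temperature, pH 7.4. Detection by anti-Gαs immunocapture on scintillation beads; EC50 derived from four-parameter logistic concentration-response fit.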
# [7] = target: T4, gastric inhibitory peptide receptor (GIPR) (Homo sapiens, UniProt P48546); experiment: cAMP pharmacological functional assay in presence of casein, hGIPR; assay type: cell-based
# T4 sequence (P48546 22-466): T1 sequence (P48546 22-466)
# [8] = read-out: hGIPR Ki, nM (SEM, n)
# [9] = read-out: hGLcgR Ki, nM (SEM, n)
# [10] = CHO-K1 cells, PathHunter β-arrestin-2 recruitment, 0.1% casein, read-out: hGLP1R B-Arrestin2 Rel EC50 uM (SEM, n)
# [11] = HEK293 cells expressing hGLP-1R, 0.1% Casein, geometric mean, read-out: hGLP1R cAMP Rel EC50 nM (SEM, n)
# [12] = read-out: hGLP1R Ki, (nM) (SEM, n)
# [13] = HEK293 cell membranes expressing human GLP-1R, [35S]GTPγS binding, read-out: hGLP1R GTPgS Rel EC50 nM (SEM, n)
# [14] = HEK293 cells expressing hGIPR, 0.1% Casein, geometric mean, read-out: hGIPR cAMP Rel EC50 nM (SEM, n)
# T3 sequence (P43220 24-463): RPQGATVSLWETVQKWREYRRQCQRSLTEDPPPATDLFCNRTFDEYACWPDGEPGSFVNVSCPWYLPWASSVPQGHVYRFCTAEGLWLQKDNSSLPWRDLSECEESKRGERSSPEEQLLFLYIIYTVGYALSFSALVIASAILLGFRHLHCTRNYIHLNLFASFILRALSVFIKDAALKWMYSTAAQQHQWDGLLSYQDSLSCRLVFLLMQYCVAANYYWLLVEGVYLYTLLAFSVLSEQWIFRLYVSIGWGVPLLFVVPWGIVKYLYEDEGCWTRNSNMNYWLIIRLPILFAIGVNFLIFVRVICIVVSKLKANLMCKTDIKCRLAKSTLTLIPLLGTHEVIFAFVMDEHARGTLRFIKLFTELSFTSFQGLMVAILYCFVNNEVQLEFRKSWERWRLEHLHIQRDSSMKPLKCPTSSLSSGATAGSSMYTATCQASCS
# Chain of human GLP-1 receptor (GLP-1R) (P43220 24-463): as above
# T2 sequence (P47871 26-477): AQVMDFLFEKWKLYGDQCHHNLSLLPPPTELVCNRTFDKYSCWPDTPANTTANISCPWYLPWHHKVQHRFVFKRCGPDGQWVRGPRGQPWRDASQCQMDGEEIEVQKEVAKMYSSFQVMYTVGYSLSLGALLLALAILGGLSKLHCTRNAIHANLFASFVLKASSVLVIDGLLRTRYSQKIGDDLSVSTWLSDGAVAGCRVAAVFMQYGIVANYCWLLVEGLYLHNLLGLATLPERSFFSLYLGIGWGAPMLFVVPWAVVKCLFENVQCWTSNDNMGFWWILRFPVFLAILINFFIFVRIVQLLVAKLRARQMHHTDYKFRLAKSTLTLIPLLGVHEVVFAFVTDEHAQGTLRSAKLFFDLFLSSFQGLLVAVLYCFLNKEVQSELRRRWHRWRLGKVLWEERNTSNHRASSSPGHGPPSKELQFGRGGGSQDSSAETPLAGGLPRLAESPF
Compound,"Ki [1, 8]","Ki [2, 9]","EC50 [3, 10]",hGLP1R B-Arrestin2 % Top [3],"EC50 [4, 11]","Ki [5, 12]","EC50 [6, 13]","EC50 [7, 14]","EC50 ([3]; CHO-K1 cells, 0.1% w/v hydrolyzed Casein, read-out: hGLP1R B-Arrestin2 Rel EC50)",Ki [1],Ki [2],EC50 [3],EC50 [4],Ki [5],EC50 [6],EC50 [7]
CC[C@H](C)[C@H](NC(=O)[C@H](CC(C)C)NC(=O)[C@H](Cc1ccc(O)cc1)NC(=O)[C@H](CCC(=O)O)NC(=O)[C@@H](NC(=O)[C@H](Cc1ccccc1)NC(=O)[C@H](CCC(=O)O)NC(=O)C(C)(C)NC(=O)[C@H](CCC(N)=O)NC(=O)[C@H](C)NC(=O)[C@H](CCCCNC(=O)COCCOCCNC(=O)COCCOCCNC(=O)CC[C@H](NC(=O)CCCCCCCCCCCCCCCCCCC(=O)O)C(=O)O)NC(=O)[C@H](CCCCN)NC(=O)[C@H](CC(=O)O)NC(=O)[C@H](CC(C)C)NC(=O)[C@](C)(CC(C)C)NC(=O)[C@@H](NC(=O)[C@H](CO)NC(=O)[C@H](Cc1ccc(O)cc1)NC(=O)[C@H](CC(=O)O)NC(=O)[C@H](CO)NC(=O)[C@@H](NC(=O)[C@H](Cc1ccccc1)NC(=O)[C@@H](NC(=O)CNC(=O)[C@H](CCC(=O)O)NC(=O)C(C)(C)NC(=O)[C@@H](N)Cc1ccc(O)cc1)[C@@H](C)O)[C@@H](C)O)[C@@H](C)CC)[C@@H](C)CC)C(=O)N[C@@H](CCC(=O)O)C(=O)NCC(=O)NCC(=O)N1CCC[C@H]1C(=O)N[C@@H](CO)C(=O)N[C@@H](CO)C(=O)NCC(=O)N[C@@H](C)C(=O)N1CCC[C@H]1C(=O)N1CCC[C@H]1C(=O)N1CCC[C@H]1C(=O)N[C@@H](CO)C(N)=O [Example 333] (H-Y[Aib]EGTFTSDYSI[αMeL]LDKK([AEEA-AEEA-γGlu-C20 diacid])AQ[Aib]EFIEYLIEGGPSSGAPPPS-NH2),0.0634 nM,578 nM,0.0548 µM,58.2%,0.131 nM,4.25 nM,0.442 nM,0.0492 nM,,,,,,,,
CC[C@H](C)[C@H](NC(=O)[C@H](CC(C)C)NC(=O)[C@H](Cc1ccc(O)cc1)NC(=O)[C@H](CCC(=O)O)NC(=O)[C@@H](NC(=O)[C@H](Cc1ccccc1)NC(=O)[C@H](C)NC(=O)C(C)(C)NC(=O)[C@H](CCC(N)=O)NC(=O)[C@H](C)NC(=O)[C@H](CCCCNC(=O)COCCOCCNC(=O)COCCOCCNC(=O)CC[C@H](NC(=O)CCCCCCCCCCCCCCCCCCC(=O)O)C(=O)O)NC(=O)[C@H](CCCCN)NC(=O)[C@H](CC(=O)O)NC(=O)[C@H](CC(C)C)NC(=O)[C@](C)(CC(C)C)NC(=O)[C@@H](NC(=O)[C@H](CO)NC(=O)[C@H](Cc1ccc(O)cc1)NC(=O)[C@H](CC(=O)O)NC(=O)[C@H](CO)NC(=O)[C@@H](NC(=O)[C@H](Cc1ccccc1)NC(=O)[C@@H](NC(=O)CNC(=O)[C@H](CCC(=O)O)NC(=O)C(C)(C)NC(=O)[C@H](N)Cc1ccc(O)cc1)[C@@H](C)O)[C@@H](C)O)[C@@H](C)CC)[C@@H](C)CC)C(=O)N[C@@H](CCC(=O)O)C(=O)NCC(=O)NCC(=O)N1CCC[C@H]1C(=O)N[C@@H](CO)C(=O)N[C@@H](CO)C(=O)NCC(=O)N[C@@H](C)C(=O)N1CCC[C@H]1C(=O)N1CCC[C@H]1C(=O)N1CCC[C@H]1C(=O)N[C@@H](CO)C(N)=O [Example 334],0.0646 nM,192 nM,> 10.3 µM,,0.303 nM,2.17 nM,0.432 nM,0.0718 nM,> 10.3 µM,,,,,,,
CC[C@H](C)[C@H](NC(=O)[C@H](CC(C)C)NC(=O)[C@H](Cc1ccc(O)cc1)NC(=O)[C@H](CCC(=O)O)NC(=O)[C@@H](NC(=O)[C@H](Cc1ccccc1)NC(=O)[C@H](C)NC(=O)C(C)(C)NC(=O)[C@H](CCC(N)=O)NC(=O)[C@H](C)NC(=O)[C@H](CCCCNC(=O)COCCOCCNC(=O)COCCOCCNC(=O)CC[C@H](NC(=O)CCCCCCCCCCCCCCCCCCC(=O)O)C(=O)O)NC(=O)[C@H](CCCCN)NC(=O)[C@H](CC(=O)O)NC(=O)[C@H](CC(C)C)NC(=O)[C@](C)(CC(C)C)NC(=O)[C@@H](NC(=O)[C@H](CO)NC(=O)[C@H](Cc1ccc(O)cc1)NC(=O)[C@H](CC(=O)O)NC(=O)[C@H](CO)NC(=O)[C@@H](NC(=O)[C@](C)(Cc1ccccc1)NC(=O)[C@@H](NC(=O)CNC(=O)[C@H](CCC(=O)O)NC(=O)C(C)(C)NC(=O)[C@H](N)Cc1ccc(O)cc1)[C@@H](C)O)[C@@H](C)O)[C@@H](C)CC)[C@@H](C)CC)C(=O)N[C@@H](CCC(=O)O)C(=O)NCC(=O)NCC(=O)N1CCC[C@H]1C(=O)N[C@@H](CO)C(=O)N[C@@H](CO)C(=O)NCC(=O)N[C@@H](C)C(=O)N1CCC[C@H]1C(=O)N1CCC[C@H]1C(=O)N1CCC[C@H]1C(=O)N[C@@H](CO)C(N)=O [Example 335],,,,73%,,,,,,0.0444 nM,27.1 nM,0.00531 µM,0.122 nM,2.54 nM,0.285 nM,0.0477 nM
CC[C@H](C)[C@H](NC(=O)[C@H](CC(C)C)NC(=O)[C@H](Cc1ccc(O)cc1)NC(=O)[C@H](CCC(=O)O)NC(=O)[C@@H](NC(=O)[C@H](Cc1ccccc1)NC(=O)[C@H](C)NC(=O)C(C)(C)NC(=O)[C@H](CCC(N)=O)NC(=O)[C@H](C)NC(=O)[C@H](CCCCNC(=O)COCCOCCNC(=O)COCCOCCNC(=O)CC[C@H](NC(=O)CCCCCCCCCCCCCCCCCCC(=O)O)C(=O)O)NC(=O)[C@H](CCCCN)NC(=O)[C@H](CC(=O)O)NC(=O)[C@H](CC(C)C)NC(=O)[C@](C)(CC(C)C)NC(=O)[C@@H](NC(=O)[C@H](CO)NC(=O)[C@H](Cc1ccc(O)cc1)NC(=O)[C@H](CC(=O)O)NC(=O)[C@H](CO)NC(=O)[C@@H](NC(=O)[C@](C)(Cc1ccccc1F)NC(=O)[C@@H](NC(=O)CNC(=O)[C@H](CCC(=O)O)NC(=O)C(C)(C)NC(=O)[C@H](N)Cc1ccc(O)cc1)[C@@H](C)O)[C@@H](C)O)[C@@H](C)CC)[C@@H](C)CC)C(=O)N[C@@H](CCC(=O)O)C(=O)NCC(=O)NCC(=O)N1CCC[C@H]1C(=O)N[C@@H](CO)C(=O)N[C@@H](CO)C(=O)NCC(=O)N[C@@H](C)C(=O)N1CCC[C@H]1C(=O)N1CCC[C@H]1C(=O)N1CCC[C@H]1C(=O)N[C@@H](CO)C(N)=O [Example 336],,,,82.5%,,,,,,0.0277 nM,17.1 nM,0.00778 µM,0.0874 nM,2.44 nM,0.377 nM,0.0312 nM
CC[C@H](C)[C@H](NC(=O)[C@H](CC(C)C)NC(=O)[C@H](Cc1ccc(O)cc1)NC(=O)[C@H](CCC(=O)O)NC(=O)[C@@H](NC(=O)[C@H](Cc1ccccc1)NC(=O)[C@H](C)NC(=O)C(C)(C)NC(=O)[C@H](CCC(N)=O)NC(=O)[C@H](C)NC(=O)[C@H](CCCCNC(=O)COCCOCCNC(=O)COCCOCCNC(=O)CC[C@H](NC(=O)CCCCCCCCCCCCCCCCCCC(=O)O)C(=O)O)NC(=O)[C@H](CCCCN)NC(=O)[C@H](CC(=O)O)NC(=O)[C@H](CC(C)C)NC(=O)[C@](C)(CC(C)C)NC(=O)[C@@H](NC(=O)[C@H](CO)NC(=O)[C@H](Cc1ccc(O)cc1)NC(=O)[C@H](CC(=O)O)NC(=O)[C@H](CO)NC(=O)[C@@H](NC(=O)[C@H](Cc1ccccc1)NC(=O)[C@@H](NC(=O)CNC(=O)[C@H](CCC(=O)O)NC(=O)C(C)(C)NC(=O)[C@@H](N)Cc1ccccc1)[C@@H](C)O)[C@@H](C)O)[C@@H](C)CC)[C@@H](C)CC)C(=O)N[C@@H](C)C(=O)NCC(=O)NCC(=O)N1CCC[C@H]1C(=O)N[C@@H](CO)C(=O)N[C@@H](CO)C(=O)NCC(=O)N[C@@H](C)C(=O)N1CCC[C@H]1C(=O)N1CCC[C@H]1C(=O)N1CCC[C@H]1C(=O)N[C@@H](CO)C(N)=O [Example 337] (H-F[Aib]EGTFTSDYSI[αMeL]LDKK([AEEA-AEEA-γGlu-C20 diacid])AQ[Aib]AFIEYLIAGGPSSGAPPPS-NH2),0.0363 nM,335 nM,0.0174 µM,34.1%,0.173 nM,1.61 nM,0.322 nM,0.0515 nM,,,,,,,,
